≈ marks a conversion by molar mass, not a printed value.
How the values were obtained:
Format in all cases: cell-based
C. albicans ATCC 10231 [1] = assay: Quantitative antimicrobial activity, serial binary microdilution (MIC, IC50); settings: Candida albicans, ATCC10231, 24 h, 37 °C, DMSO control 1.25
Method: (§1) For the evaluation of antimicrobial activity, the following reference strains were used: S. aureus ATCC 25923, E. faecalis ATCC 29212, E. coli ATCC 25922, P. aeruginosa ATCC 27853 and C. albicans ATCC 10231.
(§2) Quantitative analysis was performed using the method of serial binary microdilutions in liquid medium (Tryptone Soy Broth for bacteria and Sabouraud Broth for yeasts) in plates with 96 wells. Stock solutions of 10 mg/mL were made in DMSO, and the range of concentrations tested for each compound was 5000–0.16 μg/mL. Simultaneously, the DMSO control was carried out under the same working conditions. Each well was inoculated with 10 μL of microbial suspension, adjusted to a density of 1.5 × 10^8 CFU/mL prepared from 18 to 24 h cultures. After 24 h of incubation at 37 °C, microbial growth and multiplication were evaluated both macroscopically and spectrophotometrically at 620 nm to establish the MIC values. […] Blanks were made for each sample concentration, and the formula was applied: Microbial viability(%)=Asample−Ablank/Astrain control−Asterility control·100

E. faecalis ATCC 29212 [2] = assay: as above; settings: 37 °C, DMSO control 2.5; for MIC (mg/mL): 24 h; for MIC: Enterococcus faecalis, ATCC29212, 24 h
Method: as §1, §2

S. aureus ATCC 25923 [3] = assay: as above; settings: 24 h; for MIC (mg/mL) / MIC: S. aureus ATCC 25923, 37 °C, DMSO control 2.5
Method: as §1, §2

P. aeruginosa ATCC 27853 [4] = assay: as above; settings: Pseudomonas aeruginosa, ATCC27853, 24 h, 37 °C, DMSO control 1.25
Method: as §1, §2

E. coli ATCC 25922 [5] = assay: as above; settings: for MIC: Escherichia coli, ATCC25922, E. coli ATCC 25922, 24 h, 37 °C, DMSO control 1.25
Method: as §1, §2

C. albicans ATCC 10231 [6] = assay: Microbicidal activity (MMC); settings: DMSO control 5
Method: (§3) For the evaluation of antimicrobial activity, the following reference strains were used: S. aureus ATCC 25923, E. faecalis ATCC 29212, E. coli ATCC 25922, P. aeruginosa ATCC 27853 and C. albicans ATCC 10231. To determine the MMCs, 5 μL of culture was taken from each well and distributed on solid medium. The plates were incubated for 20–24 h at 37 °C. The lowest concentration at which no microbial growth was observed was considered MMC.

S. aureus ATCC 25923 [7] = assay: Microbicidal activity (MMC); settings: DMSO control 5
Method: as §3

P. aeruginosa ATCC 27853 [8] = assay: Microbicidal activity (MMC); settings: DMSO control 2.5
Method: as §3

C. albicans ATCC 10231 [9] = assay: Microbial adhesion, crystal violet (MICMA); settings: DMSO control 1.25
Outline: (§4)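 Reference strains tested after quantitative antimicrobial assay. Adhered biomass fixed with methanol, stained with 0.1% crystal violet, resuspended in 33% acetic acid, absorbance read at 490 nm.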

E. faecalis ATCC 29212 [10] = assay: Microbial adhesion, crystal violet (MICMA); settings: DMSO control 2.5
Outline: as §4

E. coli ATCC 25922 [11] = assay: Microbial adhesion, crystal violet (MICMA); settings: DMSO control 5
Outline: as §4

[12] = system: VERO (non-tumoral African green monkey kidney epithelial cells); assay: Cytotoxicity, MTT assay; settings: 24 h; for Cytotoxic effect on normal cells (in words): 3.125 to 50 µM
E. faecalis ATCC 29212 [13] = assay: Microbicidal activity (MMC); settings: DMSO control >5
Method: as §3

E. coli ATCC 25922 [14] = assay: Microbicidal activity (MMC); settings: DMSO control 5
Method: as §3

[15] = Staphylococcus aureus, ATCC25923
[16] = at lower concentrations (below 50 µM)

| Structure (SMILES) | MIC (C. albicans ATCC 10231 [1]) | MIC (mg/mL) (E. faecalis ATCC 29212 [2]) | MIC (E. faecalis ATCC 29212 [2]) | MIC (mg/mL) (S. aureus ATCC 25923 [3]) | MIC (S. aureus ATCC 25923 [3]; [15]) | MIC (P. aeruginosa ATCC 27853 [4]) | MIC (E. coli ATCC 25922 [5]) | MMC (C. albicans ATCC 10231 [6]) | MMC (S. aureus ATCC 25923 [7]) | MMC (P. aeruginosa ATCC 27853 [8]) | MICMA (C. albicans ATCC 10231 [9]) | MICMA (E. faecalis ATCC 29212 [10]) | MICMA (E. coli ATCC 25922 [11]) | Effect on cell viability (in words) [12, 16] | IC50 (S. aureus ATCC 25923 [3]; Staphylococcus aureus, ATCC25923, S. aureus, four-parameter fit of microbial viability) | MMC (E. faecalis ATCC 29212 [13]) | IC50 (antimicrobial activity) compared with solvent control (E. coli ATCC 25922 [5]; E. coli, versus DMSO, p < 0.05) | MMC (E. coli ATCC 25922 [14]) | Effect on cell viability (in words) ([12]; at 50 µM, compared to the untreated control) | Cytotoxic effect on normal cells (in words) [12] |
| --- | --- | --- | --- | --- | --- | --- | --- | --- | --- | --- | --- | --- | --- | --- | --- | --- | --- | --- | --- | --- |
| Cc1nc2ccccc2c(=O)n1CC(=O)N/N=C/c1cc(Br)ccc1O [Compound 1a, N′-[(E)-(5-bromo-2-hydroxyphenyl)methylidene]-2-(2-methyl-4-oxoquinazolin-3(4H)-yl)acetohydrazide] | 625 mg/L (≈ 1.51 mM) | specifically active | 1250 mg/L (≈ 3.01 mM) | specifically active | 1250 mg/L (≈ 3.01 mM) | 1250 mg/L (≈ 3.01 mM) | 1250 mg/L (≈ 3.01 mM) | 5 mg/mL | >5 mg/mL | 2.5 mg/mL | 0.625 mg/mL | 1.25 mg/mL | 1.25 mg/mL | – | – | – | – | – | – | – |
| Cc1nc2ccccc2c(=O)n1CC(=O)N/N=C/c1cc(Br)cc(Br)c1O [Compound 1b, N′-[(E)-(3,5-bromo-2-hydroxyphenyl)methylidene]-2-(2-methyl-4-oxoquinazolin-3(4H)-yl)acetohydrazide] | 625 mg/L (≈ 1.26 mM) | – | > 5000 mg/L | specifically active | 312 mg/L (≈ 0.632 mM) | 5000 mg/L (≈ 10.1 mM) | 1250 mg/L (≈ 2.53 mM) | 5 mg/mL | >5 mg/mL | 5 mg/mL | 5 mg/mL | 5 mg/mL | 2.5 mg/mL | statistically significant increase in cell viability | 85.7 mg/L (≈ 0.173 mM) | >5 mg/mL | – | – | – | – |
| COc1cccc(/C=N/NC(=O)Cn2c(C)nc3ccccc3c2=O)c1O [Compound 1c, N′-[(E)-(2-hydroxy-3-methoxyphenyl)methylidene]-2-(2-methyl-4-oxoquinazolin-3(4H)-yl)acetohydrazide] | 2500 mg/L (≈ 6.82 mM) | – | 2500 mg/L (≈ 6.82 mM) | – | 2500 mg/L (≈ 6.82 mM) | 1250 mg/L (≈ 3.41 mM) | 1250 mg/L (≈ 3.41 mM) | 5 mg/mL | 5 mg/mL | 2.5 mg/mL | 0.625 mg/mL | 2.5 mg/mL | 2.5 mg/mL | – | – | >5 mg/mL | significantly lower IC50 values than the solvent control | 5 mg/mL | – | – |
| COc1ccc(/C=N/NC(=O)Cn2c(C)nc3ccccc3c2=O)c(O)c1 [Compound 1d, N′-[(E)-(2-hydroxy-4-methoxyphenyl)methylidene]-2-(2-methyl-4-oxoquinazolin-3(4H)-yl)acetohydrazide] | 5000 mg/L (≈ 13.6 mM) | – | 5000 mg/L (≈ 13.6 mM) | – | 2500 mg/L (≈ 6.82 mM) | 1250 mg/L (≈ 3.41 mM) | 1250 mg/L (≈ 3.41 mM) | >5 mg/mL | >5 mg/mL | – | 1.25 mg/mL | 5 mg/mL | 2.5 mg/mL | statistically significant increase in cell viability | – | >5 mg/mL | – | 5 mg/mL | statistically significant decrease in viability | – |
| COc1ccc(O)c(/C=N/NC(=O)Cn2c(C)nc3ccccc3c2=O)c1 [Compound 1e, N′-[(E)-(2-hydroxy-5-methoxyphenyl)methylidene]-2-(2-methyl-4-oxoquinazolin-3(4H)-yl)acetohydrazide] | 1250 mg/L (≈ 3.41 mM) | – | 5000 mg/L (≈ 13.6 mM) | specifically active | 1250 mg/L (≈ 3.41 mM) | 5000 mg/L (≈ 13.6 mM) | 5000 mg/L (≈ 13.6 mM) | – | 5 mg/mL | 5 mg/mL | 2.5 mg/mL | 5 mg/mL | 5 mg/mL | – | – | >5 mg/mL | – | 5 mg/mL | – | strong cytotoxic effects |
| COc1cc(/C=N/NC(=O)Cn2c(C)nc3ccccc3c2=O)cc([N+](=O)[O-])c1O [Compound 1f, N′-[(E)-(4-hydroxy-3-methoxy-5-nitrophenyl)methylidene]-2-(2-methyl-4-oxoquinazolin-3(4H)-yl)acetohydrazide] | 1250 mg/L (≈ 3.04 mM) | specifically active | 1250 mg/L (≈ 3.04 mM) | – | 2500 mg/L (≈ 6.08 mM) | 1250 mg/L (≈ 3.04 mM) | 1250 mg/L (≈ 3.04 mM) | 5 mg/mL | 5 mg/mL | 2.5 mg/mL | 1.25 mg/mL | 2.5 mg/mL | 2.5 mg/mL | – | – | >5 mg/mL | – | – | – | well tolerated |
| Cc1nc2ccccc2c(=O)n1CC(=O)NN [Compound 2, 2-(2-methyl-4-oxoquinazolin-3(4H)-yl)acetohydrazide] | 1250 mg/L (≈ 5.38 mM) | – | 2500 mg/L (≈ 10.8 mM) | – | 2500 mg/L (≈ 10.8 mM) | 1250 mg/L (≈ 5.38 mM) | 1250 mg/L (≈ 5.38 mM) | 5 mg/mL | >5 mg/mL | 5 mg/mL | – | >5 mg/mL | 1.25 mg/mL | – | – | >5 mg/mL | – | – | – | well tolerated |

Source: paper PMC12845261, “Design, Synthesis, and Biological Evaluation of N-Acyl-Hydrazone-Linked Quinazolinone Derivatives with Antioxidant, Antimicrobial, and Anticancer Potential” (Pharmaceuticals, 2025)
